This passage reports IC50, Ki and Activity results from ChEMBL document CHEMBL5614382, “Discovery of a new 1-(phenylsulfonyl)-1H-indole derivative targeting the EphA2 receptor with antiproliferative activity on U251 glioblastoma cell line” (Eur J Med Chem, 2024).

Active and inactive are the calls of the source. No cut-off for these calls is given here.

Assay [1] deals with T1, Ephrin type-A receptor 2 (Mus musculus, UniProt Q03145). The assay is described as follows: Displacement of biotinylated Fc-tagged ephrin-A1 from C/N-terminal 6-His tagged mouse recombinant EphA2 (Ala22 to Ala535 residues) preincubated for 1 hr followed by ephrin-A1-Fc addition and measured after 4 to 5 hrs by ELISA assay. (In an ELISA, binding on a coated surface is turned into a signal by an enzyme label.)

The target in another assay is T2, Ephrin type-B receptor 1 (Rattus norvegicus, UniProt P09759).
T2 sequence (P09759 whole entry): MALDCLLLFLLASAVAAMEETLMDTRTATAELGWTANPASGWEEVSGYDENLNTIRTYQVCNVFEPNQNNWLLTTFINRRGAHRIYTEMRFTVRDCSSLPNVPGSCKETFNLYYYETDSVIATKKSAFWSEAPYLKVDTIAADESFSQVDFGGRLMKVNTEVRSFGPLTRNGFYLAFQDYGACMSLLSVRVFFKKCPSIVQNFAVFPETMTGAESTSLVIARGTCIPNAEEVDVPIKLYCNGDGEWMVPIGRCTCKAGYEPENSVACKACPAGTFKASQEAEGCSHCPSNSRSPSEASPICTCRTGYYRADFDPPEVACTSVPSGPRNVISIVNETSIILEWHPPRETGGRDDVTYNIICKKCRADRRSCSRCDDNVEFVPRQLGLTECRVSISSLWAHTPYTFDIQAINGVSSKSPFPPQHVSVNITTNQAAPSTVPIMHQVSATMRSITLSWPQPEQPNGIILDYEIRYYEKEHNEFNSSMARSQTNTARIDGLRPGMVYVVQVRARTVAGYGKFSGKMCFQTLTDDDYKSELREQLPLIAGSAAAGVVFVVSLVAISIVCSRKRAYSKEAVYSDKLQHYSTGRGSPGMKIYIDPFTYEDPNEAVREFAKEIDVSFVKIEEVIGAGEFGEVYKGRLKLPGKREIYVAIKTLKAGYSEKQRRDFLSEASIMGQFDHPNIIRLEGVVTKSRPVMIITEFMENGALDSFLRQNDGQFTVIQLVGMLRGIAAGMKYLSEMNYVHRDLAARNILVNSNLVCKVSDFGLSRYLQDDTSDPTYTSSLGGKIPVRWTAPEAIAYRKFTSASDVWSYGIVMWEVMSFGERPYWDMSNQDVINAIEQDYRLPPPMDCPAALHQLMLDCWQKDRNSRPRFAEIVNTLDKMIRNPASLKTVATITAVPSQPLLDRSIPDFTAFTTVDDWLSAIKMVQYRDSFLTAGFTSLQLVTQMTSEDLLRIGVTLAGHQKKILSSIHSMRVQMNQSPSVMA
Nature of the assay: Displacement of biotinylated Fc-tagged ephrin-B1 from N/C-terminal recombinant rat EphB1 (Met18 to Gln538 residues) preincubated for 1 hr followed by ephrin-B1-Fc addition and measured after 4 to 5 hrs by ELISA assay.

Another assay deals with T3, Ephrin type-B receptor 2 (Mus musculus, UniProt P54763).
T3 sequence (P54763 whole entry): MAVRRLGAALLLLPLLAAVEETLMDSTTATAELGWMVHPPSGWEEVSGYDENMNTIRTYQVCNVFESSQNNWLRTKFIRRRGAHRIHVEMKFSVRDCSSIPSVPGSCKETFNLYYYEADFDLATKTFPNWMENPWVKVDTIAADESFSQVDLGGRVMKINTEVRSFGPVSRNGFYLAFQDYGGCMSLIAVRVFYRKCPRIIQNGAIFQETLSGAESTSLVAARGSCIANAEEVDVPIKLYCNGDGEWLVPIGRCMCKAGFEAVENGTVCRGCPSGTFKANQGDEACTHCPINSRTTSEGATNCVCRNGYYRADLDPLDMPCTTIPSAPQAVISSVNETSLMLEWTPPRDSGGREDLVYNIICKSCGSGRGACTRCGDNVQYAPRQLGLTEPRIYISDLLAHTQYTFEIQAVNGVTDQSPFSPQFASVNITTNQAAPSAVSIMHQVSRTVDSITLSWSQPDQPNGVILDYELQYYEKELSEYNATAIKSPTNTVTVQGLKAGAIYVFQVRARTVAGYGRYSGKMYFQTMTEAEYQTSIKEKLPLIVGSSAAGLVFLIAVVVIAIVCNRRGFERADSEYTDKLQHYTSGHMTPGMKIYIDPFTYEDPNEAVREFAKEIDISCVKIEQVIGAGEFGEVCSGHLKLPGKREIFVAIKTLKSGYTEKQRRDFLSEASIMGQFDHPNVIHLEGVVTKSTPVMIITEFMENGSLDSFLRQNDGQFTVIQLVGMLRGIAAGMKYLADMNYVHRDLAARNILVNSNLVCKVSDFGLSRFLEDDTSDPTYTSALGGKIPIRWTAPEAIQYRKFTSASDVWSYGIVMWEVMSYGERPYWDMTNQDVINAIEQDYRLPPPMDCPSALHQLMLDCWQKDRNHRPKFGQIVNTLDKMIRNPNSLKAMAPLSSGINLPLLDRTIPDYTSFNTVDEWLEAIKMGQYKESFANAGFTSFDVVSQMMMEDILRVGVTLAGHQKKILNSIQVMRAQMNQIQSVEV
Nature of the assay: Displacement of biotinylated Fc-tagged ephrin-B1 from recombinant N/C-terminal 6-his tagged mouse EphB2 (Val27 to Lys548 residues) preincubated for 1 hr followed by ephrin-B1-Fc addition and measured after 4 to 5 hrs by ELISA assay.

Assay [2] has as its target T1, Ephrin type-A receptor 2. The assay is described as follows: Displacement of biotinylated Fc-tagged ephrin-A1 from C/N-terminal 6-His tag mouse recombinant EphA2 (Ala22 to Ala535 residues) assessed as inhibition constant preincubated for 1 hr followed by ephrin-A1-Fc addition and measured after 4 to 5 hrs by ELISA assay.
For assay [3], the system named is U-251. The assay is described as follows: Antiproliferative activity against human U-251 cells assessed as inhibition of cell growth at 30 uM measured after 72 hrs by MTT assay relative to control. Also on record: scale not given: the % may be the effect or the level left. It is filed as functional. A general note: Tetrazolium dyes change colour on reduction, which living cells bring about.

The subject of assay [4] is U-251. Nature of the assay: Antiproliferative activity against human U-251 cells assessed as inhibition of cell growth at 10 uM measured after 72 hrs by MTT assay. It is filed as functional, cell-based.
The subject of assay [5] is U-251. Nature of the assay: Effect on EphA2 protein level in human U-251 cells in presence of ephrin-A1 at 30 uM incubated for 4 hrs by ELISA assay. Format: functional, cell-based.
Assay [6] deals with U-251. The assay is described as follows: Cytotoxicity against human U-251 cells at upto 30 uM measured after 2 hrs by CytTox 96 non-radioactive cytotoxicity assay. Format: functional, cell-based.
Assay [7] has as its target Ephrin type-A receptor 2 (Homo sapiens) (UniProt P29317). Nature of the assay: Induction of EphA2 phosphorylation in human U-251 cells. It is filed as cell-based.
Assay [8] concerns LOUCY. Nature of the assay: Antiproliferative activity against human LOUCY cells harbouring EPHA2 knockout assessed as reduction in cell viability at 1 to 10 uM measured after 72 hrs by Celltiter-glo ATP based assay. It is filed as functional. Particulars: dose 1-10 µM.
The subject of assay [9] is LOUCY. Nature of the assay: Antiproliferative activity against human LOUCY cells assessed as reduction in cell viability at 30 uM measured after 72 hrs by Celltiter-glo ATP based assay. Format: functional. On the technique in general: Cellular ATP, detected with luciferase, serves as a proxy for viable cell number.
Assay [10] has as its system U-251. Nature of the assay: Antiproliferative activity against human U-251 cells assessed as reduction in cell viability at 30 uM measured after 72 hrs by Celltiter-glo ATP based assay. It is filed as functional.

T1 sequence (Q03145 whole entry): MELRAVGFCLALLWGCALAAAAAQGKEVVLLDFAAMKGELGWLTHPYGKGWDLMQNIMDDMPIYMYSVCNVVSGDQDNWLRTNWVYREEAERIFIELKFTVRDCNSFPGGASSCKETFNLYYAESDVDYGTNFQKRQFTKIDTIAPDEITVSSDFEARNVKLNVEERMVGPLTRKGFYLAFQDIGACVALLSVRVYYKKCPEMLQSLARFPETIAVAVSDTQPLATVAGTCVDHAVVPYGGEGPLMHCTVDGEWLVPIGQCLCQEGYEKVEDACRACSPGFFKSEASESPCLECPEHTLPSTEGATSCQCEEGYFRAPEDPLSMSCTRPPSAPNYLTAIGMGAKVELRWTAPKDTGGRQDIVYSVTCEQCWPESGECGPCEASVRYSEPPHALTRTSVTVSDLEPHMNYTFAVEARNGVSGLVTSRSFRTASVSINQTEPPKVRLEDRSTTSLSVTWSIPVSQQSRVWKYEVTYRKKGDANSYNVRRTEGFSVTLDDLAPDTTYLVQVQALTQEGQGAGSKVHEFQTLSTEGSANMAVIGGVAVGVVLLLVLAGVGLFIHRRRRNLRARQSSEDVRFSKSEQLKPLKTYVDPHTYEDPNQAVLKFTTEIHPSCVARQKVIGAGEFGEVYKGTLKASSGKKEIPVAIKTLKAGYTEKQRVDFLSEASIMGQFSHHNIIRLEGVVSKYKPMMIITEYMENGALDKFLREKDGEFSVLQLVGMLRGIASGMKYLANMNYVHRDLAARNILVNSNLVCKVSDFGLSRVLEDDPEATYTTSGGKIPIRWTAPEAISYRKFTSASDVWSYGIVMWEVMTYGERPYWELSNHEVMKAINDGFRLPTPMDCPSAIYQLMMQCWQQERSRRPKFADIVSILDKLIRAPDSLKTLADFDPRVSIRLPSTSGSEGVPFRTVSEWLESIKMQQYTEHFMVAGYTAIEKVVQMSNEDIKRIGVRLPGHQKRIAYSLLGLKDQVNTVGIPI
Chain of Ephrin type-A receptor 2 (Homo sapiens) (P29317 whole entry): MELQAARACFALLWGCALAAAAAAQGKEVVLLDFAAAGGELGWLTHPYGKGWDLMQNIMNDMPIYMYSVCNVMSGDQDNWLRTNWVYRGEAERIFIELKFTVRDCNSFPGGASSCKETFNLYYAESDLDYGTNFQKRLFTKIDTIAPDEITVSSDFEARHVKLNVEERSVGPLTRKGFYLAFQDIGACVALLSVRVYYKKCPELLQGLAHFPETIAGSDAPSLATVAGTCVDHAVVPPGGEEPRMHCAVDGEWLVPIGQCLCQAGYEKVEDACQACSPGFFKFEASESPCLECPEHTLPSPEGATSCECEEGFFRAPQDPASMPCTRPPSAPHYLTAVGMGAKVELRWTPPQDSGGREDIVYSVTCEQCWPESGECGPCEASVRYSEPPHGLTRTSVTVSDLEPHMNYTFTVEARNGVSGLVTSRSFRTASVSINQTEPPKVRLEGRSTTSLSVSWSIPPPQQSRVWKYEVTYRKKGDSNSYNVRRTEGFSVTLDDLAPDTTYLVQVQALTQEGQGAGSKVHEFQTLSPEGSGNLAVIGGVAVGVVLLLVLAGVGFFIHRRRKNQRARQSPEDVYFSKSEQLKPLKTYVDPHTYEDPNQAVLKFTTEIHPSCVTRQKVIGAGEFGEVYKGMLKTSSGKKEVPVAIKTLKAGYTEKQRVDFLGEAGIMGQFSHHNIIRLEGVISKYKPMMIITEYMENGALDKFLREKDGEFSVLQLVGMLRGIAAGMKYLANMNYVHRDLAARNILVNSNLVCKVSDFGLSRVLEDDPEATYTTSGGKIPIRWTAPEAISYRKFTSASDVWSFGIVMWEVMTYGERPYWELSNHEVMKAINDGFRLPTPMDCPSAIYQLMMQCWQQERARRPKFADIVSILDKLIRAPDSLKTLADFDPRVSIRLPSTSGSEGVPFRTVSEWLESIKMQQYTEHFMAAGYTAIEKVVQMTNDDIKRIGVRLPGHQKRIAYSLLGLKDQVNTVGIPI

The IC50 is the concentration at which inhibition is half-maximal. In general, Ki refers to the equilibrium dissociation constant of an inhibitor or competing ligand from its target. For `C[C@H](CCC(=O)N[C@H](CC(=O)O)Cc1cn(S(=O)(=O)c2ccc(C(F)(F)F)cc2)c2ccccc12)[C@H]1CC[C@H]2[C@@H]3CC=C4C[C@@H](O)CC[C@]4(C)[C@H]3CC[C@]12C`, the results for the IC50 at Ephrin type-A receptor 2 [1], on Ephrin type-B receptor 1 and at Ephrin type-B receptor 2 were 2.6 µM, > 30 µM and > 30 µM, respectively. Besides, the Ki on Ephrin type-A receptor 2 [2] was determined as 2.8 µM. Moreover, the Activity in the assay with U-251 [3] is on record as 100%. The result in the assay with U-251 [4], in the assay with LOUCY [9] and in the assay on U-251 [10] was Active. The outcome (with U-251 [5]; in the assay on U-251 [6]; in assay [7]; in the assay on LOUCY [8]) was inactive.

Regarding `C[C@H](CCC(=O)N[C@H](CC(=O)O)Cc1cn(S(=O)(=O)c2ccccc2)c2ccccc12)[C@H]1CC[C@H]2[C@@H]3CC=C4C[C@@H](O)CC[C@]4(C)[C@H]3CC[C@]12C`, the figures for the half-inhibitory concentration (IC50) on Ephrin type-A receptor 2 [1], at Ephrin type-B receptor 1 and at Ephrin type-B receptor 2 were 8.1 µM, > 30 µM and > 30 µM, respectively. The Ki on Ephrin type-A receptor 2 [2] stood at 2.2 µM.

Turning to `C[C@H](CCC(=O)N[C@H](CC(=O)O)Cc1c[nH]c2ccccc12)[C@H]1CC[C@H]2[C@@H]3CC=C4C[C@@H](O)CC[C@]4(C)[C@H]3CC[C@]12C`, the IC50 on Ephrin type-B receptor 1 was 7.7 µM.
